Assay [1] concerns the target T1, Prostaglandin G/H synthase 1 (Ovis aries, UniProt P05979).
T1 sequence (P05979 whole entry): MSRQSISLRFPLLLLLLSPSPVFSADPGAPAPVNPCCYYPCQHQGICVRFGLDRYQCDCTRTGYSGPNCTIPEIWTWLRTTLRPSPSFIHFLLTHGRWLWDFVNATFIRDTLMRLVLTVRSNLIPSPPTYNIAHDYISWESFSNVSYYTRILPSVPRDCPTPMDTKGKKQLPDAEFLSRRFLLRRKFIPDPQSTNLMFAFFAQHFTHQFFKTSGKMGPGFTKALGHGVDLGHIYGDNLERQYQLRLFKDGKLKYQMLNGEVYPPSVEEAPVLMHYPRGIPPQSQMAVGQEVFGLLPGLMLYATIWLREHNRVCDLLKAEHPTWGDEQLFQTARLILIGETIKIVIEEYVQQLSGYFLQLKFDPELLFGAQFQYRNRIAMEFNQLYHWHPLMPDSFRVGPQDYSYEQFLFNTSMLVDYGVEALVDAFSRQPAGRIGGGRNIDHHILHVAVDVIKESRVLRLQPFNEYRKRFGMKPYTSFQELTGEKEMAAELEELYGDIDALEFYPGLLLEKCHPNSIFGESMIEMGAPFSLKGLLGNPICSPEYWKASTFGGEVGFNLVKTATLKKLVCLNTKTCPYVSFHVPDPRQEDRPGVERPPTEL
The experiment in a line: Inhibition of ovine COX1 assessed as inhibition of PGF2a formation after 20 mins by Ellman's method. On the technique in general: In Ellman's method for cholinesterases, released thiocholine reacts with DTNB.

For assay [2], the target named is T2, Prostaglandin G/H synthase 1 (Ovis aries) (UniProt P05979).
T2 sequence (whole entry): T1 sequence (P05979 whole entry)
Nature of the assay: Inhibition of ovine COX1 assessed as inhibition of PGF2a formation at 10 uM after 20 mins by Ellman's method.

The target of assay [3] is T2, Prostaglandin G/H synthase 1 (Ovis aries). Nature of the assay: Inhibition of ovine COX1 assessed as inhibition of PGF2a formation at 100 nM after 20 mins by Ellman's method.
The target is the same in assay [4]. Nature of the assay: Inhibition of ovine COX1 assessed as inhibition of PGF2a formation at 1 uM after 20 mins by Ellman's method.
Assay [5] shares this target. Nature of the assay: Inhibition of ovine COX1 assessed as inhibition of PGF2a formation at 100 uM after 20 mins by Ellman's method.
For assay [6] the target is unchanged. Nature of the assay: Inhibition of ovine COX1 assessed as inhibition of PGF2a formation at 0.01 uM after 20 mins by Ellman's method.
Assay [7] is described as follows: Growth inhibition of human NCI60 cells after 48 hrs by sulforhodamine B assay. Format: functional. The following applies: NCI60, 48 h. In general terms: The SRB assay estimates cell density from bound dye.

One may read the IC50 as the concentration that gives 50% inhibition. As usually defined, the inhibition is the drop in the measured response relative to a control, in per cent. Take `N#CSC[C@@H]1C[C@@](O)(c2ccccc2)C[C@H](c2ccc(Br)cc2)O1` (relative stereo): in assay [1], the IC50 came out at 209 nM. Further, the inhibition in assay [2] came to 94%; in assay [3], 48%; in assay [4], 65%.
As to `CCSC[C@@H]1C[C@](O)(c2ccccc2)[C@@H](c2ccccc2)[C@H](c2ccccc2)O1` (relative stereo), in assay [1], the IC50 came out at 13900 nM. The inhibition in assay [2] came out at 38%; in assay [5] it was 52%; in assay [4], 16%.
For `N#CSC[C@@H]1C[C@](O)(c2ccccc2)[C@@H](c2ccccc2)[C@H](c2ccccc2)O1` (relative stereo), in that order: 64000 nM, 27%, 50% and 24%.
As for `CCSC[C@@H]1C[C@@](O)(c2ccccc2)C[C@H](c2ccc(Cl)cc2)O1` (relative stereo), the IC50 in assay [1] is 413 nM. Also, the inhibition in assay [2] was found to be 94%; in assay [3], 45%; in assay [4], 60%.
The like results for `CCSC[C@@H]1C[C@@](O)(c2ccccc2)C[C@H](c2ccc(Br)cc2)O1` (relative stereo) were, in that order, 562 nM, 94%, 40% and 58%.
In the case of `N#CSC[C@@H]1C[C@](O)(c2ccccc2)[C@@H](c2ccccc2)[C@H](c2ccc(Br)cc2)O1` (relative stereo), the IC50 in assay [1] came out at 13000 nM. Besides, the inhibition amounted to 29% in assay [2], 50% in assay [5] and 28% in assay [4].
With `N#CSC[C@@H]1C[C@@](O)(c2ccccc2)C[C@H](c2ccccc2)O1` (relative stereo), the 50% inhibitory concentration (IC50) in assay [1] was determined as 2790 nM. The inhibition in assay [2] stood at 94%; in assay [3], 26%; in assay [4] it was 39%.
With `CCSC[C@@H]1C[C@@](O)(c2ccccc2)C[C@H](C)O1` (relative stereo), the IC50 in assay [1] was determined as 347 nM. Also, the inhibition in assay [2] was 55%; in assay [5], 62%; in assay [3], 40%; in assay [4], 51%; in assay [6], 32%.
In the case of `C[C@H]1C[C@](O)(c2ccccc2)C[C@@H](CSC#N)O1` (relative stereo), the IC50 in assay [1] amounted to 368 nM. Further, the inhibition in assay [2] is 60%; in assay [5], 65%; in assay [3] it was 38%; in assay [4], 55%; in assay [6] it was 32%.
As to `CCSC[C@@H]1C[C@@](O)(c2ccccc2)C[C@H](c2ccccc2)O1` (relative stereo), the IC50 in assay [1] was 2930 nM. Moreover, the inhibition is 94% in assay [2], 25% in assay [3] and 37% in assay [4].
Turning to `CCSC[C@@H]1C[C@](O)(c2ccccc2)[C@@H](c2ccccc2)[C@H](c2ccc(Br)cc2)O1` (relative stereo), in assay [1], the IC50 amounted to 23800 nM. Further, the results for the inhibition in assay [2], in assay [5] and in assay [4] were 38%, 60% and 41%, respectively.
What is called GI50 is the concentration that inhibits growth by half. For the compound `Cc1ccc(-c2cc(C(F)(F)F)nn2-c2ccc(S(N)(=O)=O)cc2)cc1` [CELECOXIB], the GI50 in assay [7] is 17500 nM. Further, in assay [7] (read-out: LC50 (the source's name)), the CC50 amounted to 63300 nM.
